Reference: the NIST ThermoML archive (doi:10.1016/j.jct.2007.01.013)
Numbers after ± are expanded uncertainties.

Experiments:
[1] = Liquid; for mass density: 101.33 kPa; for Normal boiling temperature: Distillation
[2] = refractive index (Na D-line) (dimensionless); details: 293.15 K; 101.33 kPa; Liquid; Standard Abbe refractometry

mass density ([1]; 298 K) [kg/m3] | SMILES | mass density ([1]; 293.15 K) [kg/m3] | Normal boiling temperature [1] [°C] | refractive index [2]
 | COC(=O)c1ccccc1C(=O)OC [dimethyl 1,2-benzenedicarboxylate] | 1190.53 ± 1.5 | 283.6 ± 0.2 | 1.51384 ± 0.0007
 | CCCCOC(=O)c1ccccc1C(=O)OCCCC [dibutyl phthalate] | 1046.54 ± 0.79 | 340.1 ± 0.2 | 1.49114 ± 0.0007
884.35 ± 1 | CCOC(=O)CC [ethyl propanoate] |  | 99.1 ± 0.2 | 1.38394 ± 0.0007
